Assay results from publication PMC6749586, “Design, Synthesis, and Anticancer Effect Studies of Iridium(III) Polypyridyl Complexes against SGC-7901 Cells” (Molecules, 2019).

Columns and labels:
Type in all cases: cell-based, human
Eca-109 cells = assay: MTT cytotoxicity assay, Eca-109; conditions: 48 h, read-out: IC50 toward Eca-109
Description: The lung carcinoma cell line A549, the cervical cancer cell line HeLa, the esophageal cancer cell line Eca-109, and the human hepatocellular carcinoma cell line BEL-7402 were purchased from the cell bank of the Cell Institute of Sinica Academia Shanghai (Shanghai, China). The gastric adenocarcinoma cell line SGC-7901, the hepatocellular carcinoma cell line HepG2, and the mouse embryonic fibroblast cell line NIH 3T3 were obtained from the Experimental Animal Center of Sun Yat-Sen University (Guangzhou, China). […] Cell passage experiments were performed with trypsin every 2 days to maintain exponential growth. All cells were cultured until they reached logarithmic growth phase, unless specifically noted. Cell cytotoxicity following treatment with the iridium(III) complexes was detected by MTT assay. The cells were seeded into 96-well micro-assay culture plates (1 × 10^4 cells per well) and grown overnight in a 5% CO2 incubator at 37 °C. Then, the cell lines were treated with gradient concentrations of the complexes 1–3. After treatment for 48 h, MTT solution (5 mg mL^−1, […]) dissolved in phosphate buffer was added to each well and the cells were further cultured for 4 h. […] The absorbance of each well was measured with a microplate reader at a wavelength of 490 nm. The IC50 values were determined from the plots of viability versus concentration used to treat the cells. Three independent experiments were performed to obtain the mean values.

HeLa cells = assay: MTT cytotoxicity assay, HeLa; conditions: 48 h, read-out: IC50 toward HeLa
Description: (§1) The lung carcinoma cell line A549, the cervical cancer cell line HeLa, the esophageal cancer cell line Eca-109, and the human hepatocellular carcinoma cell line BEL-7402 were purchased from the cell bank of the Cell Institute of Sinica Academia Shanghai (Shanghai, China). The gastric adenocarcinoma cell line SGC-7901, the hepatocellular carcinoma cell line HepG2, and the mouse embryonic fibroblast cell line NIH 3T3 were obtained from the Experimental Animal Center of Sun Yat-Sen University (Guangzhou, China). The BEL-7402 and SGC-7901 cell lines were cultured in Roswell Park Memorial Institute Medium (RPMI-1640); and A549, Eca-109, HepG2, and NIH 3T3 cells were grown in Dulbecco’s Modified Eagle’s Medium (DMEM), including 10% fetal bovine serum (FBS), 100 units mL^−1 penicillin/streptomycin mixture, and 2.0 g/L of NaHCO3. Cell passage experiments were performed with trypsin every 2 days to maintain exponential growth. All cells were cultured until they reached logarithmic growth phase, unless specifically noted.
(§2) Cell cytotoxicity following treatment with the iridium(III) complexes was detected by MTT assay. The cells were seeded into 96-well micro-assay culture plates (1 × 10^4 cells per well) and grown overnight in a 5% CO2 incubator at 37 °C. Then, the cell lines were treated with gradient concentrations of the complexes 1–3. After treatment for 48 h, MTT solution (5 mg mL^−1, […]) dissolved in phosphate buffer was added to each well and the cells were further cultured for 4 h. Upon completion of incubation, the solvent was removed and 100 µL/well of buffer containing dimethylformamide (50%) and sodium dodecyl sulfate (20%) was added to dissolve the produced formazan. The absorbance of each well was measured with a microplate reader at a wavelength of 490 nm. The IC50 values were determined from the plots of viability versus concentration used to treat the cells. Three independent experiments were performed to obtain the mean values.

SGC-7901 cells [1] = assay: Western blot analysis of apoptosis-related proteins; conditions: 4.0 µM 1, 15.0 µM 2, 15.0 µM 3, 24 h
Protocol: The SGC-7901 cancer cells were seeded on 6-well plates at a density of 5 × 10^5 cells per well. Following incubation for 24 h, the cells were treated with 1–3 for 24 h. Next, total proteins were extracted from the cells after incubation in lysis radioimmunoprecipitation assay (RIPA) buffer for 30 min on ice. After centrifugation (13,000× g, 4 °C, 20 min) of the cell suspension, the supernatants were obtained. Protein concentrations were determined using a BCA (bicinchoninic acid) protein assay kit. Equal amounts of denatured proteins were fractionated by electrophoresis on SDS-polyacrylamide gel at 50 V for 3 h. A pre-stained color protein marker was used as the internal reference. The gels were then segmented, transferred to polyvinylidene fluoride (PVDF) membranes (Millipore, Burlington, MA, USA) and then blocked with 5% non-fat milk in TBST buffer (150 mM NaCl, 20 mM Tris-HCl, 0.05% Tween 20, pH = 8.0) for 2 h. […] Further hybridization with the secondary antibodies (diluted 1:5000) conjugated with horseradish peroxidase was performed after washing the membranes three times in TBST buffer with shaking. Each protein was visualized using an enhanced chemiluminescence (ECL) detection kit, in accordance with the manufacturer’s instructions. Finally, the blot images were photographed by a computerized imaging system.

SGC-7901 cells [2] = assay: ATP quantification assay (luciferin-luciferase); conditions: 4.0 µM 1, 15.0 µM 2, 15.0 µM 3, 24 h; control 951.46 nM
Protocol: Approximately 2.4 × 10^6 cells were taken, evenly planted in a 6-well plate, and incubated overnight in an incubator at 37 °C. On the next day, the cells were exposed to different concentrations of compounds for 24 h in triplicate. Following exposure, 200 μL of cell lysis buffer was added to each well of the cell plate and lysed on ice. To measure ATP, 20 μL of the lysed cell suspension was added to 100 μL of a luciferin–luciferase reagent. Light emission was measured by a luminometer. ATP levels were determined using a standard curve.

SGC-7901 cells [3] = assay: Intracellular ROS measurement with DCFH-DA; conditions: 4.0 µM 1, 15.0 µM 2, 15.0 µM 3, Rosup positive control, 24 h, versus control
Protocol: 2,7-Dichloro-dihydrofluorescein diacetate (DCFH-DA) was used as a fluorescence probe to investigate the changes in intracellular ROS levels. SGC-7901 cells were placed in a 12-well plate at a density of 1.5 × 10^5 per well. After 24 h, the medium in the wells was replaced with a medium containing the corresponding concentration of 1–3, and the cells were incubated for 24 h. Finally, the cell pellets were suspended in PBS and imaged under the ImageXpress Micro XLS system (MD company, US). The DCF fluorescence intensity was calculated by flow cytometry.

SGC-7901 cells [4] = assay: Colony-forming assay; conditions: 4.0 µM 1, 15.0 µM 2, 15.0 µM 3, 8 days
Protocol: The SGC-7901 cells were seeded at a cell density of 500 cells per well in a 6-well plate. After 24 h, an equal amount of solvent or iridium complexes was added into the medium for another 24 h. Then, the medium containing the tested complexes was removed and replaced with fresh medium. The number of the colonies was counted on the 8th day after seeding and then fixed with paraformaldehyde for 20 min. The colonies were photographed under an inverted microscope after staining with 0.1% (w/v) crystal violet for 20 min. Each experiment was carried out in triplicate.

BEL-7402 cells = assay: MTT cytotoxicity assay, BEL-7402; conditions: 48 h, read-out: IC50 toward BEL-7402
Description: as §1, §2

Structure (SMILES) | IC50 (Eca-109 cells) [µM] | IC50 (HeLa cells) [µM] | Expression level of Bax (SGC-7901 cells [1]) | Expression level of Bcl-2 (SGC-7901 cells [1]) | Expression level of Bcl-xL (SGC-7901 cells [1]) | Expression level of phosphorylated p53 (P-p53) (SGC-7901 cells [1]) | Intracellular ATP amount (SGC-7901 cells [2]) [nM] | Intracellular ROS level, DCF green fluorescence (imaging) (SGC-7901 cells [3]) | Inhibition of colony formation (SGC-7901 cells [4]) | IC50 (BEL-7402 cells) [µM]
F[P-](F)(F)(F)(F)F.O=[N+]([O-])c1cc2ccc[n+]3c2c2c1ccc[n+]2[Ir-5]312([c]3ccccc3-c3cccc[n+]31)[c]1ccccc1-c1cccc[n+]12 [Complex 1, [Ir(Hppy)2(NP)]PF6] | 20.3 ± 0.9 | 16.3 ± 0.9 | increased | dramatically decreased | dramatically decreased | dramatically decreased | 913.91 | increased green fluorescence intensity | significant inhibition of colony formation | 23 ± 0.8
F[P-](F)(F)(F)(F)F.Nc1c(N)c2cccnc2c2ncccc12.[Ir+3].[c-]1ccccc1-c1ccccn1.[c-]1ccccc1-c1ccccn1 [Complex 3, [Ir(Hppy)2(DAP)]PF6] | 97.1 ± 0.2 | 59.7 ± 6.8 | increased | dramatically decreased | dramatically decreased | dramatically decreased | 945.02 | increased green fluorescence intensity | significant inhibition of colony formation | 68.8 ± 4.6
F[P-](F)(F)(F)(F)F.Nc1c([N+](=O)[O-])c2cccnc2c2ncccc12.[Ir+3].[c-]1ccccc1-c1ccccn1.[c-]1ccccc1-c1ccccn1 [Complex 2, [Ir(Hppy)2(NAP)]PF6] | 72.6 ± 5.3 | 52.6 ± 1.4 | increased | dramatically decreased | dramatically decreased | dramatically decreased | 880.48 | increased green fluorescence intensity | significant inhibition of colony formation | 68.7 ± 1.5
